How the values were obtained:
Assay in all cases: Post-emergence application in field trials
ZEAMX = conditions: growth stage 15-16
AMARE = format: in vivo, Amaranthus retroflexus; conditions: 8 DAT; g ai/ha A-1 25, B-5 1066; growth stage 19; height 10-20 cm; water volume 140 l/ha
CYPES = conditions: 21 DAT, water volume 140 l/ha
AMATU = format: in vivo, Amaranthus tuberculatos; conditions: 8 DAT; g ai/ha A-1 12.5, B-5 1066; growth stage 19; height 10-20 cm; water volume 140 l/ha
GLXMA = format: in vivo, Glycine max; conditions: Example 4; 21 DAT; g ai/ha A-1 12.5, B-5 1066; growth stage 13; height 5-8 cm
ECHCG = format: in vivo, Echinochloa crus-galli
DIGSA = test system: DIGSA
SETVI = format: in vivo, Setaria viridis; conditions: 15 DAT; g ai/ha A-1 12.5, B-5 1066, C-10 840; growth stage 13-19; height 2-18 cm; water volume 140 l/ha
AMAPA = test system: AMAPA
DATST = test system: DATST
SETVE = conditions: growth stage 21-23
PORPI = format: in vivo; conditions: 8 DAT; g ai/ha A-1 25, B-5 1066; height 2-8 cm; water volume 140 l/ha
HORVW = conditions: growth stage 23-29, height 20-25 cm

C[N+](C)(C)CCO.O=C([O-])COc1ccc(Cl)cc1Cl [B-5, 2,4-D choline]
% Herbicidal activity (ZEAMX; Example 4, 7 DAT, g ai/ha A-1 18, B-5 1066, height 50-60 cm): 7% | % Herbicidal activity (ZEAMX; Example 4, 21 DAT, g ai/ha A-1 12.5, B-5 1066, height 50-60 cm): 10% | % Herbicidal activity (ZEAMX; Example 6, 7 DAT, g ai/ha A-1 12.5, B-5 1066, C-11 400, height 25-30 cm): 0% | % Herbicidal activity (ZEAMX; Example 6, 28 DAT, g ai/ha A-1 12.5, B-5 1066, C-11 400, height 50-60 cm): 0% | % Herbicidal activity (ZEAMX; Example 8, 28 DAT, g ai/ha A-1 12.5, B-5 1066, C-12 252, height 50-60 cm): 0% | % Herbicidal activity (AMARE): 83% | % Herbicidal activity (CYPES; g ai/ha A-1 12.5, B-5 1066, C-11 655): 0% | % Herbicidal activity (CYPES; g ai/ha A-1 50, B-5 1066, C-11 655): 0% | % Herbicidal activity (CYPES; g ai/ha A-1 50, B-5 1066): 0% | % Herbicidal activity (AMATU): 83% | % Herbicidal activity (GLXMA): 55% | % Herbicidal activity (ECHCG; 13 DAT, g ai/ha A-1 12.5, B-5 1066, C-10 840, growth stage 21-26, height 15-30 cm, water volume 187 l/ha): 0% | % Herbicidal activity (ECHCG; 13 DAT, g ai/ha A-1 25, B-5 1066, C-10 840, growth stage 21-26, height 15-30 cm, water volume 187 l/ha): 0% | % Herbicidal activity (ECHCG; 13 DAT, g ai/ha A-1 50, B-5 1066, C-10 840, growth stage 21-26, height 15-30 cm, water volume 187 l/ha): 0% | % Herbicidal activity (ECHCG; Example 4, 21 DAT, g ai/ha A-1 12.5, B-5 1066, growth stage 23-30, height 15-20 cm): 0% | % Herbicidal activity (ECHCG; Example 6, 7 DAT, g ai/ha A-1 12.5, B-5 1066, C-11 400, growth stage 23-30, height 15-20 cm): 0% | % Herbicidal activity (ECHCG; Example 6, 28 DAT, g ai/ha A-1 12.5, B-5 1066, C-11 400, growth stage 23-30, height 15-20 cm): 0% | % Herbicidal activity (ECHCG; Example 8, 7 DAT, g ai/ha A-1 12.5, B-5 1066, C-12 252, growth stage 23-30, height 15-20 cm): 0% | % Herbicidal activity (ECHCG; Example 8, 21 DAT, g ai/ha A-1 12.5, B-5 1066, C-12 252, growth stage 23-30, height 15-20 cm): 0% | % Herbicidal activity (ECHCG; Example 8, 28 DAT, g ai/ha A-1 12.5, B-5 1066, C-12 252, growth stage 23-30, height 15-20 cm): 0% | % Herbicidal activity (ECHCG; Example 10, 21 DAT, g ai/ha A-1 12.5, B-5 1066, C-4 12.5, growth stage 23-30, height 15-20 cm): 0% | % Herbicidal activity (DIGSA; 14 DAT, g ai/ha A-1 12.5, B-5 1066, height 2-8 cm, water volume 140 l/ha): 0% | % Herbicidal activity (DIGSA; 14 DAT, g ai/ha A-1 25, B-5 1066, height 2-8 cm, water volume 140 l/ha): 0% | % Herbicidal activity (DIGSA; 14 DAT, g ai/ha A-1 50, B-5 1066, height 2-8 cm, water volume 140 l/ha): 0% | % Herbicidal activity (DIGSA; 15 DAT, g ai/ha A-1 12.5, B-5 1066, C-10 840, growth stage 13-19, height 2-13 cm, water volume 140 l/ha): 27% | % Herbicidal activity (DIGSA; 21 DAT, g ai/ha A-1 12.5, B-5 1066, C-11 655, height 2-8 cm, water volume 140 l/ha): 0% | % Herbicidal activity (DIGSA; 21 DAT, g ai/ha A-1 12.5, B-5 1066, height 2-8 cm, water volume 140 l/ha): 0% | % Herbicidal activity (DIGSA; 21 DAT, g ai/ha A-1 25, B-5 1066, C-11 655, height 2-8 cm, water volume 140 l/ha): 0% | % Herbicidal activity (DIGSA; 21 DAT, g ai/ha A-1 25, B-5 1066, height 2-8 cm, water volume 140 l/ha): 0% | % Herbicidal activity (DIGSA; 21 DAT, g ai/ha A-1 50, B-5 1066, C-11 655, height 2-8 cm, water volume 140 l/ha): 0% | % Herbicidal activity (DIGSA; 21 DAT, g ai/ha A-1 50, B-5 1066, height 2-8 cm, water volume 140 l/ha): 0% | % Herbicidal activity (DIGSA; Example 6, 7 DAT, g ai/ha A-1 12.5, B-5 1066, C-11 400, growth stage 21-22, height 15-20 cm): 20% | % Herbicidal activity (DIGSA; Example 6, 21 DAT, g ai/ha A-1 12.5, B-5 1066, C-11 400, growth stage 21-22, height 15-20 cm): 20% | % Herbicidal activity (SETVI): 27% | % Herbicidal activity (AMAPA; 13 DAT, g ai/ha A-1 25, B-5 1066, growth stage 16, height 15-25 cm, water volume 187 l/ha): 53% | % Herbicidal activity (AMAPA; 14 DAT, g ai/ha A-1 12.5, B-5 1066, C-10 840, growth stage 12-24, height 5-30 cm, water volume 140 l/ha): 66% | % Herbicidal activity (AMAPA; 14 DAT, g ai/ha A-1 25, B-5 1066, C-10 840, growth stage 12-24, height 5-30 cm, water volume 140 l/ha): 66% | % Herbicidal activity (AMAPA; 19 DAT, g ai/ha A-1 12.5, B-5 1066, growth stage 16, height 15-25 cm, water volume 187 l/ha): 55% | % Herbicidal activity (AMAPA; 19 DAT, g ai/ha A-1 25, B-5 1066, growth stage 16, height 15-25 cm, water volume 187 l/ha): 55% | % Herbicidal activity (AMAPA; 19 DAT, g ai/ha A-1 50, B-5 1066, growth stage 16, height 15-25 cm, water volume 187 l/ha): 55% | % Herbicidal activity (AMAPA; 21 DAT, g ai/ha A-1 12.5, B-5 1066, growth stage 12-28, height 7-20 cm, water volume 140 l/ha): 63% | % Herbicidal activity (AMAPA; 21 DAT, g ai/ha A-1 50, B-5 1066, height 5-23 cm, water volume 140 l/ha): 78% | % Herbicidal activity (DATST; Example 4, 7 DAT, g ai/ha A-1 12.5, B-5 1066): 35% | % Herbicidal activity (DATST; Example 6, 21 DAT, g ai/ha A-1 12.5, B-5 1066, C-11 400): 40% | % Herbicidal activity (SETVE; Example 4, 21 DAT, g ai/ha A-1 12.5, B-5 1066, height 8-16 cm): 25% | % Herbicidal activity (SETVE; Example 6, 7 DAT, g ai/ha A-1 12.5, B-5 1066, C-11 400, height 10-15 cm): 15% | % Herbicidal activity (SETVE; Example 6, 21 DAT, g ai/ha A-1 12.5, B-5 1066, C-11 400, height 10-15 cm): 0% | % Herbicidal activity (PORPI): 50% | % Herbicidal activity (HORVW; Example 4, 21 DAT, g ai/ha A-1 12.5, B-5 1066): 0% | % Herbicidal activity (HORVW; Example 6, 28 DAT, g ai/ha A-1 12.5, B-5 1066, C-11 400): 0% | % Herbicidal activity (HORVW; Example 8, 21 DAT, g ai/ha A-1 12.5, B-5 1066, C-12 252): 0% | % Herbicidal activity (HORVW; Example 10, 21 DAT, g ai/ha A-1 12.5, B-5 1066, C-4 12.5): 0%
